Consider 14 molecules from ChEMBL document CHEMBL3259548, “Design, synthesis and biological evaluation of novel isoniazid derivatives with potent antitubercular activity” (Eur J Med Chem, 2014).

Values after ≈ are worked out from the molar mass of the structure shown.

Common to all, as to type: functional
The subject of test [1] is Mycobacterium tuberculosis. The test can be described thus: Antitubercular activity against Mycobacterium tuberculosis H37Rv clinical isolate harboring katG S315T mutant by BACTEC 960 assay.
Test [2] deals with Mycobacterium tuberculosis. The test can be described thus: Antitubercular activity against katG-deficient isoniazid-resistant Mycobacterium tuberculosis H37Rv ATCC 27294 by BACTEC 960 assay.
Test [3] deals with Mycobacterium tuberculosis. The test can be described thus: Ratio of isoniazid MIC to compound MIC for Mycobacterium tuberculosis H37Rv clinical isolate harboring katG S315T mutant by BACTEC 960 assay.

As a reminder, the MIC is the lowest concentration that inhibits growth of the organism. In test [1], `CCCCCC(C)C(=O)NNC(=O)c1ccncc1` (stereo not given) came in with an MIC greater than 38 µM. For `O=Cc1cccc(/C=N/NC(=O)c2ccncc2)c1`, the MIC in test [2] and in test [1] was greater than 39.5 µM in each case. With `NNC(=O)c1ccnc(NN)c1`, the MIC in test [1] came to 47.9 µM (≈ 8.01 µg/mL). This lies in the double-digit micromolar range.

For the molecule `NNC(=O)c1ccncc1` [ISONIAZID], the MIC is greater than 72.9 µM in test [2] and 43.8 µM (≈ 6.01 µg/mL) in test [1].

For `O=Cc1ccc(/C=N/NC(=O)c2ccncc2)cc1`, the MIC in test [2] and in test [1] was greater than 39.5 µM throughout. In the case of `CCCCCCCCCC(=O)NNC(=O)c1ccncc1`, the MIC in test [2] was greater than 34.3 µM; in test [1] it was 6.9 µM (≈ 2.01 µg/mL). For the same molecule, the Ratio in test [3] came out at 6.

Take `O=C(NN=C1CCCC1)c1ccncc1`: the minimal inhibitory concentration (MIC) in test [2] is greater than 49.2 µM; in test [1] it was 39.4 µM (≈ 8.01 µg/mL).

With `O=C(NN=C1CCC(c2ccccc2)CC1)c1ccncc1` (stereo not given), the minimum inhibitory concentration (MIC) in test [2] was greater than 34.1 µM; in test [1], 34.1 µM (≈ 10 µg/mL).

Regarding `O=C(N/N=C/c1cccc(CO)c1)c1ccncc1`, the MIC is greater than 39.2 µM in test [2] and 39.2 µM (≈ 10 µg/mL) in test [1].

On to `O=C(NNC1CCC(c2ccccc2)CC1)c1ccncc1` (stereo not given), for which the MIC in test [2] and in test [1] was greater than 33.9 µM in each case. Molecule `O=C(N/N=C/c1ccc(Oc2ccccc2)cc1)c1ccncc1` returned an MIC in test [1] of 18.9 µM (≈ 6 µg/mL). This lies in the double-digit micromolar range. Take `O=C(N/N=C/c1ccc(CO)cc1)c1ccncc1`: the minimum inhibitory concentration (MIC) was greater than 39.2 µM in test [2] and 39.2 µM (≈ 10 µg/mL) in test [1]. In the case of `CC(=O)NNC(=O)c1ccncc1`, the minimal inhibitory concentration (MIC) in test [2] and in test [1] was greater than 55.8 µM each time. As for `COC(=O)c1ccc(/C=N/NC(=O)c2ccncc2)cc1`, in test [1], the MIC is 21.2 µM (≈ 6.01 µg/mL).
